Tests used:
[1] = molecular target: Type-1 angiotensin II receptor (Homo sapiens, UniProt P30556); assay: IP-One assay (AGTR1), agonist mode at up to 50 µM; type: functional; parameters: compound concentration < 50 uM
[2] = molecular target: Alpha-1D adrenergic receptor (Homo sapiens) (UniProt P25100); assay: RLU of ADRA1D at 1.0 µM in the […] PRESTO-Tango GPCRome screen; details: Compound concentration 1.0 uM
[3] = molecular target: Type-1 angiotensin II receptor (Homo sapiens) (UniProt P30556); assay: RLU of AGTR1 at 1.0 µM in the […] PRESTO-Tango GPCRome screen; details: Compound concentration 1.0 uM
[4] = molecular target: Apelin receptor (Homo sapiens) (UniProt P35414); assay: RLU of APJ at 1.0 µM in the […] PRESTO-Tango GPCRome screen; details: Compound concentration 1.0 uM
Sequence of Apelin receptor (Homo sapiens) (P35414 whole entry): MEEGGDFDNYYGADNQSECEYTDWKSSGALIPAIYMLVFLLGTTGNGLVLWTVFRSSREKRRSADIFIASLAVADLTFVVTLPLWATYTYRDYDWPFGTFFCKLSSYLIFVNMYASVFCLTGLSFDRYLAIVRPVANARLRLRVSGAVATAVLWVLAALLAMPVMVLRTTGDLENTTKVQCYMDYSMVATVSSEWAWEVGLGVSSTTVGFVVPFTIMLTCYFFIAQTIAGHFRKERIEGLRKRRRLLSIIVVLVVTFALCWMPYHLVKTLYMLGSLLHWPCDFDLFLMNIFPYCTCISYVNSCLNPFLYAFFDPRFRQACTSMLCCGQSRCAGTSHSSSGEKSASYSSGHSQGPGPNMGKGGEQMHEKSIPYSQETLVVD

[5] = molecular target: B1 bradykinin receptor (Homo sapiens) (UniProt P46663); assay: RLU of BDKRB1 at 1.0 µM in the […] PRESTO-Tango GPCRome screen; details: Compound concentration 1.0 uM
[6] = molecular target: Extracellular calcium-sensing receptor (Homo sapiens) (UniProt P41180); assay: RLU of CASR at 1.0 µM in the […] PRESTO-Tango GPCRome screen; details: Compound concentration 1.0 uM
Sequence of Extracellular calcium-sensing receptor (Homo sapiens) (P41180 whole entry): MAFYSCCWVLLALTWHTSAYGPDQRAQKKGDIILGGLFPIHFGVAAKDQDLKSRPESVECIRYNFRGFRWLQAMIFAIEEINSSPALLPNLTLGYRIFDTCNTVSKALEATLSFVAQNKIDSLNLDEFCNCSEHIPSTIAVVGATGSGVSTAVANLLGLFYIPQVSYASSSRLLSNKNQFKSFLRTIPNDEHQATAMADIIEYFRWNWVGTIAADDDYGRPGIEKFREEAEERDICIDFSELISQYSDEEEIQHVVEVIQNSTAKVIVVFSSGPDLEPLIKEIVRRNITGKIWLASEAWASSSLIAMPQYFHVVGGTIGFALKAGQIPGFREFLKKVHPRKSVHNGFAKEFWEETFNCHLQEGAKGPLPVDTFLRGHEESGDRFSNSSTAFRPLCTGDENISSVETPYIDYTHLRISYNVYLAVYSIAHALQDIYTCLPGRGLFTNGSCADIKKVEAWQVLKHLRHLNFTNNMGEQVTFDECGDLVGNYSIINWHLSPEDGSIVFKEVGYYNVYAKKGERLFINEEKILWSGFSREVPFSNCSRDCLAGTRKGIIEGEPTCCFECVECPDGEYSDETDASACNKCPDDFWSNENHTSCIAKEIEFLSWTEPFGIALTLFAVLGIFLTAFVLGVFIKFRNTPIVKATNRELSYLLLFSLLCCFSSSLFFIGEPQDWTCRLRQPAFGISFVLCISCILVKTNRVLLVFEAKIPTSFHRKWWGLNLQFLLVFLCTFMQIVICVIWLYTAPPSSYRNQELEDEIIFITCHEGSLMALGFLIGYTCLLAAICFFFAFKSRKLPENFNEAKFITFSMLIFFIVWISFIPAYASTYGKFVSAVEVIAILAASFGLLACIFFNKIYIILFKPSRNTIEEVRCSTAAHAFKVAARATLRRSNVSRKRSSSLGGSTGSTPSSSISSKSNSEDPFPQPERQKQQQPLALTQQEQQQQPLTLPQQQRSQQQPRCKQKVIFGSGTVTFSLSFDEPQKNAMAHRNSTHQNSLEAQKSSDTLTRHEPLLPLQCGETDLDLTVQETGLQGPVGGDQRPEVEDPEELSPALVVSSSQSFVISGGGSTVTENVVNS

[7] = molecular target: Corticotropin-releasing factor receptor 1 (Homo sapiens) (UniProt P34998); assay: RLU of CRHR1 at 1.0 µM in the […] PRESTO-Tango GPCRome screen; details: Compound concentration 1.0 uM
[8] = molecular target: C-X-C chemokine receptor type 4 (Homo sapiens) (UniProt P61073); assay: RLU of CXCR4 at 1.0 µM in the […] PRESTO-Tango GPCRome screen; details: Compound concentration 1.0 uM
Sequence of C-X-C chemokine receptor type 4 (Homo sapiens) (P61073 whole entry): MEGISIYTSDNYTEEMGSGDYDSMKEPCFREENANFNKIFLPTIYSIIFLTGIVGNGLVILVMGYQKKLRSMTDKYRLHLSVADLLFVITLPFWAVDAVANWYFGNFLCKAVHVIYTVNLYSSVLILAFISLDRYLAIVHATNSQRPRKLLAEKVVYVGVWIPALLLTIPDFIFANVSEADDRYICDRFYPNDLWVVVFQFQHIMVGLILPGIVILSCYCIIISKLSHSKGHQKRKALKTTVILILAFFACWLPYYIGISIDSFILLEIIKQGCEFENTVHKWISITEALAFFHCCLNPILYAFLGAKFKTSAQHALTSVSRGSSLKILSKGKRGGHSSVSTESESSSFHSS

[9] = molecular target: Atypical chemokine receptor 3 (Homo sapiens) (UniProt P25106); assay: RLU of CXCR7 at 1.0 µM in the […] PRESTO-Tango GPCRome screen; details: Compound concentration 1.0 uM
[10] = molecular target: Cysteinyl leukotriene receptor 2 (Homo sapiens) (UniProt Q9NS75); assay: RLU of CYSLTR2 at 1.0 µM in the […] PRESTO-Tango GPCRome screen; details: Compound concentration 1.0 uM
[11] = molecular target: Gamma-aminobutyric acid type B receptor subunit 1 (Homo sapiens) (UniProt Q9UBS5); assay: RLU of GABBR1 at 1.0 µM in the […] PRESTO-Tango GPCRome screen; details: Compound concentration 1.0 uM
[12] = molecular target: Gonadotropin-releasing hormone receptor (Homo sapiens) (UniProt P30968); assay: RLU of GNRHR at 1.0 µM in the […] PRESTO-Tango GPCRome screen; details: Compound concentration 1.0 uM
[13] = molecular target: Glucose-dependent insulinotropic receptor (Homo sapiens) (UniProt Q8TDV5); assay: RLU of GPR119 at 1.0 µM in the […] PRESTO-Tango GPCRome screen; details: Compound concentration 1.0 uM
Sequence of Glucose-dependent insulinotropic receptor (Homo sapiens) (Q8TDV5 whole entry): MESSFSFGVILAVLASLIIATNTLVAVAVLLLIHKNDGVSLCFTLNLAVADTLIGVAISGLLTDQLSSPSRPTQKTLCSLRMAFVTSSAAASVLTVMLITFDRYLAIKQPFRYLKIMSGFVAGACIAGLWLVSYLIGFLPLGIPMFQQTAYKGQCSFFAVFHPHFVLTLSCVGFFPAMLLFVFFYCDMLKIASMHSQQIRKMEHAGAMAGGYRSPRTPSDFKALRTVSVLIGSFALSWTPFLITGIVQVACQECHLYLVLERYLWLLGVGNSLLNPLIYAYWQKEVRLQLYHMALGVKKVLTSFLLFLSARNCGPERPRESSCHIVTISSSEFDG

[14] = molecular target: Free fatty acid receptor 4 (Homo sapiens) (UniProt Q5NUL3); assay: RLU of GPR120 at 1.0 µM in the […] PRESTO-Tango GPCRome screen; details: Compound concentration 1.0 uM
Sequence of Free fatty acid receptor 4 (Homo sapiens) (Q5NUL3 whole entry): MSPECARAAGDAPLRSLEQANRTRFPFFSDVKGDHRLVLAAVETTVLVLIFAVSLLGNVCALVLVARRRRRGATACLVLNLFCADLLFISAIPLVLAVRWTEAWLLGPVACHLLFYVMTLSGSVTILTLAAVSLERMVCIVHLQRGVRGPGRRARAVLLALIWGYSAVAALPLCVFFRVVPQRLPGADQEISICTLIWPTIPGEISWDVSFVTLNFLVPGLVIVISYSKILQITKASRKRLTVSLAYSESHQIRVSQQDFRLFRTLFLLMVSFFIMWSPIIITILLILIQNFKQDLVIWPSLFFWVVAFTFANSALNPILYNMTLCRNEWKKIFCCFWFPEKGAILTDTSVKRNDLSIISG

[15] = molecular target: Probable G-protein coupled receptor 153 (Homo sapiens) (UniProt Q6NV75); assay: RLU of GPR153 at 1.0 µM in the […] PRESTO-Tango GPCRome screen; details: Compound concentration 1.0 uM
Sequence of Probable G-protein coupled receptor 153 (Homo sapiens) (Q6NV75 whole entry): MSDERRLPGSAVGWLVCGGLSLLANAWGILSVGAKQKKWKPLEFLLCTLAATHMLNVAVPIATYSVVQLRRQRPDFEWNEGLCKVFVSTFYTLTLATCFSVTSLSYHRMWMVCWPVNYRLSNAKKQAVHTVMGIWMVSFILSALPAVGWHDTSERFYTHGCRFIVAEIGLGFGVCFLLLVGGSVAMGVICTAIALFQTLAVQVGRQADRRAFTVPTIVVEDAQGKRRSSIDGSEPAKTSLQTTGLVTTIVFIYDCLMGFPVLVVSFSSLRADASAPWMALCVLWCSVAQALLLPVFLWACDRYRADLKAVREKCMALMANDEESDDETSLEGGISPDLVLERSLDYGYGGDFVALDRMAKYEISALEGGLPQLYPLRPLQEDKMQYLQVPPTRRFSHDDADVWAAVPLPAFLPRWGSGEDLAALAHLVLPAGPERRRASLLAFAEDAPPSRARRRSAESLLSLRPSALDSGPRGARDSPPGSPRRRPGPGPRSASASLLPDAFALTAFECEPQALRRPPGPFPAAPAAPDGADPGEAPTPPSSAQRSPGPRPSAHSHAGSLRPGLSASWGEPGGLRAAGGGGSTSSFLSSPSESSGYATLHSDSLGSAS

[16] = molecular target: Probable G-protein coupled receptor 21 (Homo sapiens) (UniProt Q99679); assay: RLU of GPR21 at 1.0 µM in the […] PRESTO-Tango GPCRome screen; details: Compound concentration 1.0 uM
[17] = molecular target: Probable G-protein coupled receptor 25 (Homo sapiens) (UniProt O00155); assay: RLU of GPR25 at 1.0 µM in the […] PRESTO-Tango GPCRome screen; details: Compound concentration 1.0 uM
[18] = molecular target: G-protein coupled receptor 3 (Homo sapiens) (UniProt P46089); assay: RLU of GPR3 at 1.0 µM in the […] PRESTO-Tango GPCRome screen; details: Compound concentration 1.0 uM
[19] = molecular target: Probable G-protein coupled receptor 45 (Homo sapiens) (UniProt Q9Y5Y3); assay: RLU of GPR45 at 1.0 µM in the […] PRESTO-Tango GPCRome screen; details: Compound concentration 1.0 uM
[20] = molecular target: G-protein coupled receptor 55 (Homo sapiens) (UniProt Q9Y2T6); assay: RLU of GPR55 at 1.0 µM in the […] PRESTO-Tango GPCRome screen; details: Compound concentration 1.0 uM
[21] = molecular target: Probable G-protein coupled receptor 63 (Homo sapiens) (UniProt Q9BZJ6); assay: RLU of GPR63 at 1.0 µM in the […] PRESTO-Tango GPCRome screen; details: Compound concentration 1.0 uM
[22] = molecular target: Probable G-protein coupled receptor 75 (Homo sapiens) (UniProt O95800); assay: RLU of GPR75 at 1.0 µM in the […] PRESTO-Tango GPCRome screen; details: Compound concentration 1.0 uM
[23] = molecular target: G-protein coupled receptor 84 (Homo sapiens) (UniProt Q9NQS5); assay: RLU of GPR84 at 1.0 µM in the […] PRESTO-Tango GPCRome screen; details: Compound concentration 1.0 uM
[24] = molecular target: Retinoic acid-induced protein 3 (Homo sapiens) (UniProt Q8NFJ5); assay: RLU of GPRC5A at 1.0 µM in the […] PRESTO-Tango GPCRome screen; details: Compound concentration 1.0 uM
[25] = molecular target: 5-hydroxytryptamine receptor 1E (Homo sapiens) (UniProt P28566); assay: RLU of HTR1E at 1.0 µM in the […] PRESTO-Tango GPCRome screen; details: Compound concentration 1.0 uM
[26] = molecular target: KiSS-1 receptor (Homo sapiens) (UniProt Q969F8); assay: RLU of KISSPEPTIN at 1.0 µM in the […] PRESTO-Tango GPCRome screen; details: Compound concentration 1.0 uM
[27] = molecular target: Leukotriene B4 receptor 1 (Homo sapiens, UniProt Q15722); assay: RLU of LTB4R at 1.0 µM in the […] PRESTO-Tango GPCRome screen; details: Compound concentration 1.0 uM
Sequence of Leukotriene B4 receptor 1 (Q15722 whole entry): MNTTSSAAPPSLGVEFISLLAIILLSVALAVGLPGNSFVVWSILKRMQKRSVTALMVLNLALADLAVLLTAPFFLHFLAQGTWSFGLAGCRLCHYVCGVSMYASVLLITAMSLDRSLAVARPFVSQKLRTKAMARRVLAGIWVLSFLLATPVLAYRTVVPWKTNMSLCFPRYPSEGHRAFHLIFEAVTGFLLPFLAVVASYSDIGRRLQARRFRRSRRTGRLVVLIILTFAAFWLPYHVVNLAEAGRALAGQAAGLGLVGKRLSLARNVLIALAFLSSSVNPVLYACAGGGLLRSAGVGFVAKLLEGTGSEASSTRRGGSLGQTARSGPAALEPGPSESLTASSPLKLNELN

[28] = molecular target: Mas-related G-protein coupled receptor member X4 (Homo sapiens) (UniProt Q96LA9); assay: RLU of MRGPRX4 at 1.0 µM in the […] PRESTO-Tango GPCRome screen; details: Compound concentration 1.0 uM
[29] = molecular target: Neuropeptide Y receptor type 4 (Homo sapiens) (UniProt P50391); assay: RLU of NPY4R at 1.0 µM in the […] PRESTO-Tango GPCRome screen; details: Compound concentration 1.0 uM
[30] = molecular target: Delta-type opioid receptor (Homo sapiens) (UniProt P41143); assay: RLU of OPRD1 at 1.0 µM in the […] PRESTO-Tango GPCRome screen; details: Compound concentration 1.0 uM
[31] = molecular target: Nociceptin receptor (Homo sapiens) (UniProt P41146); assay: RLU of OPRL1 at 1.0 µM in the […] PRESTO-Tango GPCRome screen; details: Compound concentration 1.0 uM
Sequence of Nociceptin receptor (Homo sapiens) (P41146 whole entry): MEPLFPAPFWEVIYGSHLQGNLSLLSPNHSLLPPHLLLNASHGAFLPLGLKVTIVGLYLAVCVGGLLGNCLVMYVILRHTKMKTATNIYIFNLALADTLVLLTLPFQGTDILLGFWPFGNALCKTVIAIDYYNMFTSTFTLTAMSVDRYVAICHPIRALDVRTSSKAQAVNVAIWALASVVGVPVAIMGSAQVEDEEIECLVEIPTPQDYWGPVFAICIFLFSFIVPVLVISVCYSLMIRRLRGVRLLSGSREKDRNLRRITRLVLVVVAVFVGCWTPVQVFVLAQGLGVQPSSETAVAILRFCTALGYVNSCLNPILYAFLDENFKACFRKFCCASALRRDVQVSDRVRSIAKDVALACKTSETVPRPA

[32] = molecular target: P2Y purinoceptor 12 (Homo sapiens) (UniProt Q9H244); assay: RLU of P2RY12 at 1.0 µM in the […] PRESTO-Tango GPCRome screen; details: Compound concentration 1.0 uM
Sequence of P2Y purinoceptor 12 (Homo sapiens) (Q9H244 whole entry): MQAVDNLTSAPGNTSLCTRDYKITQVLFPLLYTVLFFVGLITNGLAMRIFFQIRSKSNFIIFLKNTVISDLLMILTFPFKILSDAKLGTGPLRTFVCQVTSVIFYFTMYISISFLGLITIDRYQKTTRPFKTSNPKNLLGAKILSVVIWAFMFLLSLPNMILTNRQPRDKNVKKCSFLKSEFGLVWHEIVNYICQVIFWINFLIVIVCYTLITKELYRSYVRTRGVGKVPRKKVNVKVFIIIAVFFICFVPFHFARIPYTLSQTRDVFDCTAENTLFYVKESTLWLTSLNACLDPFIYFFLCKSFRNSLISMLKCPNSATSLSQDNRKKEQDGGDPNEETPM

[33] = molecular target: Prostaglandin E2 receptor EP4 subtype (Homo sapiens) (UniProt P35408); assay: RLU of PTGER4 at 1.0 µM in the […] PRESTO-Tango GPCRome screen; details: Compound concentration 1.0 uM
Sequence of Prostaglandin E2 receptor EP4 subtype (Homo sapiens) (P35408 whole entry): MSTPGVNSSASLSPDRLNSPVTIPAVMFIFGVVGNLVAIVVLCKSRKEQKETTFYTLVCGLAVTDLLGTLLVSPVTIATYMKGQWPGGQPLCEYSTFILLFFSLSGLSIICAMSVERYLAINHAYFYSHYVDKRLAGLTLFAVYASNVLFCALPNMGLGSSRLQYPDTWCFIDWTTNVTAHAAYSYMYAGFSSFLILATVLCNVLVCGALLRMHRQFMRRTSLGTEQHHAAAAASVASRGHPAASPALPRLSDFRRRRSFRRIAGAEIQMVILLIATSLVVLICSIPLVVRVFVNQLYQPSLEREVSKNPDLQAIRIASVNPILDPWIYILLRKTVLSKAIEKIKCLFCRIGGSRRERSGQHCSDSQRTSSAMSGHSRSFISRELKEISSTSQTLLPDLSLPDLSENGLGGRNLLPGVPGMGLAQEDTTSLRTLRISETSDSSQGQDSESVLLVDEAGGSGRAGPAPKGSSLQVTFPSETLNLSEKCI

[34] = molecular target: Parathyroid hormone/parathyroid hormone-related peptide receptor (Homo sapiens) (UniProt Q03431); assay: RLU of PTH1R at 1.0 µM in the […] PRESTO-Tango GPCRome screen; details: Compound concentration 1.0 uM
[35] = molecular target: Relaxin receptor 1 (Homo sapiens) (UniProt Q9HBX9); assay: RLU of RXFP1 at 1.0 µM in the […] PRESTO-Tango GPCRome screen; details: Compound concentration 1.0 uM

CCCCC(=O)N1CC2(C1)CN(c1ccccc1-c1nnn[nH]1)C2
EC50 [1]: > 50 µM (not active) | RLU [2]: 2940 | RLU [3]: 9130 | RLU [4]: 5300 | RLU [5]: -3310 | RLU [6]: 4400 | RLU [7]: 5080 | RLU [8]: -831 | RLU [9]: -7340 | RLU [10]: -3190 | RLU [11]: 3390 | RLU [12]: -3090 | RLU [13]: 272 | RLU [14]: 1030 | RLU [15]: -4690 | RLU [16]: -483 | RLU [17]: -1210 | RLU [18]: -1780 | RLU [19]: 963 | RLU [20]: 602000 | RLU [21]: -87.9 | RLU [22]: 868 | RLU [23]: -3990 | RLU [24]: 3570 | RLU [25]: -638 | RLU [26]: 2040 | RLU [27]: -270 | RLU [28]: 3310 | RLU [29]: -158 | RLU [30]: 1290 | RLU [31]: 2760 | RLU [32]: -34.4 | RLU [33]: 620 | RLU [34]: 13.4 | RLU [35]: -1130
